Reference: PMC2724708, “Adenosine Kinase of T. b. rhodesiense Identified as the Putative Target of 4-[5-(4-phenoxyphenyl)-2H-pyrazol-3-yl]morpholine Using Chemical Proteomics” (PLoS Neglected Tropical Diseases, 2009)
Read-outs that look alike come from different tables or passages of the source.

Experiments:
[1] = biological target: T1, adenosine kinase of T. b. rhodesiense (TbrAK) (Trypanosoma brucei rhodesiense, UniProt Q584S0); test: Radiometric assay for EC50 determination (TbrAK hyperactivation); type: biochemical; settings: 12 µM [2-3H]adenosine, 167 µM ATP, 0.88 nM TbrAK, 37°C
T1 sequence (Q584S0 1-345): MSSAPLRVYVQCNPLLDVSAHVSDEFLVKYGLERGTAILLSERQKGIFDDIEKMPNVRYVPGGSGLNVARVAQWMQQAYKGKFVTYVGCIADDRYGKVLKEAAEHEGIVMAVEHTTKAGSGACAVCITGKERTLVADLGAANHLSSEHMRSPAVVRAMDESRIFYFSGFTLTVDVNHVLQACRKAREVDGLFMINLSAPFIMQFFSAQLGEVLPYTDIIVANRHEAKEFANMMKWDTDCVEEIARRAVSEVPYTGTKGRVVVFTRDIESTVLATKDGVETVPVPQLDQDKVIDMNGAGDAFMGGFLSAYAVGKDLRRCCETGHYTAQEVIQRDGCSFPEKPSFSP
Protocol: Radiometric assay for EC50 determination
The EC50 for hyperactivation of TbrAK by compound 1 was obtained by monitoring the conversion of [2-3H]adenosine to [2-3H]AMP. Reactions were executed at 37°C in a final volume of 30 µl containing 20 mM Hepes, 50 mM NaCl, 167 µM ATP, 167 µM MgCl2, 0.33 % BSA, and 1.0 % DMSO. The concentration of [2-3H]adenosine was kept constant at 12 µM while compound 1 was varied in the range of 0-100 µM. The reaction was started by the addition of 1 ng (0.88 nM) TbrAK. The reactions were incubated and 5 µl aliquots were spotted on 5 mm diameter DE81-cellulose disks placed in a 96-well plate to stop the reaction. The disks were washed 3 times with 250 µl 5 mM ammonium formate, once with H2O, transferred to scintillation vials, and then soaked with 2 ml of the displacement solution (100 mM HCl, 200 mM KCl) and gently shaken for 1 minute to elute the phosphorylated product. After adding 10 ml scintillation liquid, the samples were counted. For comparative reasons the activity recorded in absence of compound was set to 100 %. The mean of four independent measurements is reported.

[2] = biological target: T1, adenosine kinase of T. b. rhodesiense (TbrAK); test: Isothermal titration calorimetry (ITC) with TbrAK; type: binding; settings: for Kd: two-sites non-interacting binding model
Protocol: Isothermal titration calorimetry (ITC) was employed to elucidate the binding affinity of compound 1 toward TbrAK. All solutions were degassed for 5 min with gentle stirring under vacuum. TbrAK was dialyzed into buffer E2 (20 mM Tris, 150 mM NaCl, pH 7.5, 5% glycerol), diluted to 7 µM and supplemented with 1% DMSO, filtered and filled into the sample cell. The ligand solution was prepared by diluting a stock solution of compound 1 or 5 in DMSO with buffer E2 to give a final concentration of 150 µM and 1% DMSO. The final ligand solution was filtered before use. A titration experiment consisted of a first control injection of 1 µl followed by 27 injections, each of 10 µl and 20 s duration, with a 4-min interval in between. Raw data were collected, corrected for ligand heats of dilution, integrated and fit to the two-set non-interacting binding sites model using the Origin® software supplied with the instrument. The measurements were performed at least in duplicate.

[3] = system: bloodstream-form T. b. brucei TbAK RNAi cells; test: Drug sensitivity test (Alamar blue) on TbAK RNAi knock-down mutant; type: cell-based; settings: Trypanosoma brucei
Protocol: The construction of the T. b. brucei adenosine kinase gene knock-down mutant has been described recently. Expression of a stem-loop construct targeting TbAK was induced by addition of 10 µg/ml tetracycline to the medium. Down-regulation of TbAK expression was verified by Northern blotting. Parasites were cultivated and drug sensitivity was tested using the Alamar blue test. IC50 values were calculated by nonlinear fitting to the sigmoidal dose-response curve using Origin® software. The assays were performed in triplicates for at least four times.

[4] = biological target: T2, glycosomal T. b. rhodesiense glyceraldehyde-3-phosphate dehydrogenase (TbrGAPDH) (Trypanosoma brucei brucei, UniProt P22512); test: Thermal stability assay (CD spectroscopy) regarding TbrGAPDH; type: binding; settings: compound at 50 µM
T2 construct: made in house; host or cells: E. coli BL21(DE3), pET28a
Protocol: Thermal unfolding of TbrGAPDH and TbrAK was studied by circular dichroism (CD) spectroscopy at 220 nm within the temperature range of 20–90°C using a heating rate of 40°C/h. […]
All measurements were done in a 0.5 mm cell and contained 0.1 %
DMSO and 2.5 mM EDTA to prevent enzyme activity. Thermal stability was analyzed in presence of 500 µM substrate to record the maximum stability limit, whereas compounds 1 to 5 were used at a concentration of 50 µM, being the highest concentration achievable for compound 2, to allow comparison of all compounds at the same concentration. For evaluation of the CD spectra, the buffer spectrum was subtracted from the protein CD spectrum. All thermal unfolding curves were fitted to a two-state model that had been published recently. The mean of three independent experiments are reported. […]

T. b. rhodesiense = system: T. b. rhodesiense; design: method as in PMID 17949068; settings: in vitro, blood stage parasite; read-out: IC50 against blood stage T.b. rhodesiense; cited from earlier work
[5] = design: method as in PMID 17949068; settings: cited from earlier work

T2 sequence (P22512 whole entry): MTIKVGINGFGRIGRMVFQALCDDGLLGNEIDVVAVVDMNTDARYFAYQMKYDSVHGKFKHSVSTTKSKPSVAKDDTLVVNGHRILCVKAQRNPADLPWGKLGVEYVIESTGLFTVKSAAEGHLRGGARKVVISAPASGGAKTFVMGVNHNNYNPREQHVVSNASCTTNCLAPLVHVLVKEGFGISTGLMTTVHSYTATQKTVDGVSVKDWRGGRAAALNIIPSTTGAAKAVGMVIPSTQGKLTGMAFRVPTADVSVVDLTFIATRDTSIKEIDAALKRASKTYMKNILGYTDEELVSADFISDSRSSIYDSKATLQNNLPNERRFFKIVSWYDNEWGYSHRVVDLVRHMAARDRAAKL

c1ccc(Oc2ccc(-c3cc(N4CCOCC4)[nH]n3)cc2)cc1 [compound 1, 4-[5-(4-phenoxyphenyl)-2H-pyrazol-3-yl]morpholine]
EC50 [1]: 38 ± 12 nM | molecules of compound bound per molecule of enzyme [2]: two | ΔHbind, high affinity binding site [2]: -3.05 ± 0.77 kcal/mol | ΔHbind, low affinity binding site [2]: -1.13 ± 0.24 kcal/mol | Kd ([2]; read-out: KD, high affinity binding site): 75 ± 20 nM | Kd ([2]; read-out: KD, low affinity binding site): 497 ± 34 nM | IC50 ([3]; read-out: IC50 on TbAK RNAi cells, induced): 271 ± 25 nM | IC50 ([3]; read-out: IC50 on TbAK RNAi cells, non-induced): 131 ± 43 nM | Tm of TbrGAPDH [4]: 46.8 ± 0.1 °C | IC50 (T. b. rhodesiense): 1000 nM | cytotoxicity / general toxicity [5]: low cytotoxicity
